Test: Phase 1 study: injection-site evaluation (injection-site reactions)
Format: in vivo, human
Details: for patients who experienced ISRs / patients with injection-site pain: associated with the named injection; for Injection-site discomfort / Injection-site erythema / Injection-site induration / Injection-site pain / Injection-site swelling / Patients with at least one ISR: reactions associated with the named injection on day 1
Procedure: The duration of the study was approximately 6 months and consisted of screening, inpatient dosing, outpatient, and follow-up period (FIG. 1). […] A total of 160 patients were planned to be enrolled and randomized 1:1:1:1 to one of four treatment groups, as follows: 1-day initiation regimen groups (30 mg oral aripiprazole plus ALNCD, plus either AL 441 or 882 mg [on day 1] then 20 days of oral placebo), or 21-day initiation regimen groups (15 mg oral aripiprazole plus placebo IM, plus either AL 441 or 882 mg [on day 1] followed by 20 days of oral aripiprazole 15 mg/day). […] ALNCD or placebo were administered as IM injections in the gluteal muscle. For the AL doses, a single 441 mg dose was given in the deltoid muscle or a single 882 mg dose in the gluteal muscle contralateral to the ALNCD (or placebo) injection. All safety analyses were performed using observed data from the safety population, and measurements included adverse events (AEs), vital signs measurements, weight, laboratory test results, ECG findings, Columbia-Suicide Severity Rating Scale (C-SSRS) responses, movement disorder measures, CGI-S responses, and injection-site evaluation. AEs were assessed daily on days 1-15, every other day from days 17-25, on days 28 and 31, once-weekly from days 35 to 85, and on days 113 and 141. Injection-site evaluations were carried out daily on days 1-15, every other day from days 17-25, and on day 28. The injection site and surrounding area were evaluated with each injection (separately for the ALNCD or placebo injection site and AL site). Any observed injection-site reactions were followed until resolution.

With `CCCCCCCCCCCC(=O)OCN1C(=O)CCc2ccc(OCCCCN3CCN(c4cccc(Cl)c4Cl)CC3)cc21` [AL, (7-(4-(4-(2,3-dichlorophenyl)piperazin-1-yl)butoxy)-2-oxo-3,4-dihydroquinolin-1(2H)-yl)methyl dodecanoate] the “severity of Injection-Site Reactions (ISRs)” value (all ISRs associated with the injection) was “mild-to-moderate”, the “patients who experienced ISRs” value (listed as AL 441 mg) was 22.8% and the “patients with injection-site pain” value (listed as AL 441 mg) was 20.3%. The “patients who experienced ISRs” value (listed as AL 882 mg) was 18.3%, the “patients with injection-site pain” value (listed as AL 882 mg) was 18.3% and the Injection-site discomfort (listed as AL 441 mg) was 1 (1.3) n (%). For the same compound, the Injection-site erythema (listed as AL 441 mg) was 1 (1.3) n (%), the Injection-site induration (listed as AL 441 mg) was 4 (5.1) n (%) and the Injection-site pain (listed as AL 441 mg) was 16 (20.3) n (%). The Injection-site swelling (listed as AL 441 mg) was 2 (2.5) n (%), the “Patients with at least one ISR” value (listed as AL 441 mg) was 18 (22.8) n (%) and the Injection-site discomfort (listed as AL 882 mg) was 0 n (%). For the same compound, the Injection-site erythema (listed as AL 882 mg) was 0 n (%), the Injection-site induration (listed as AL 882 mg) was 2 (2.4) n (%) and the Injection-site pain (listed as AL 882 mg) was 15 (18.3) n (%). The Injection-site swelling (listed as AL 882 mg) was 1 (1.2) n (%) and the “Patients with at least one ISR” value (listed as AL 882 mg) was 15 (18.3) n (%).

— patent US12251381B2, “Aripiprazole dosing strategy” (Alkermes Pharma Ireland Limited, priority 2018, dated 2025)
